Reference: patent US10849878B2 (OBSHCHESTVO S OGRANICHENNOY OTVETSTVENNOSTYU “NORMOFARM”, priority 2015, dated 2020)

Experiments:
white Wistar rats [1] = assay: suspension test (24 h), antistress and anxiolytic activity; format: in vivo, rat; details: 60 mg/kg in the form of pills with cocoa, administration day 7
white Wistar rats [2] = assay: transport stress simulation test (shaker, 240 min); format: in vivo, rat; parameters: AST in blood serum / ALT in blood serum / Creatinine in blood serum: unit not given here
Experimental: The anti-stress, anxiolytic and antidepressant effects of the claimed agent and compositions on its basis were determined as follows. […] The suspension test. Five animals from each group were used. Each animal was suspended for 24 hours. After that the sample of whole blood was taken from the sublingual vessels of that animal Then the animal was placed in a desiccator with diethyl ether. 60 minutes later a spinal decapitation of the animal was performed. The abdominal opening was performed and the number of ulcers on the inner surface of the stomach was counted. The obtained whole blood was placed in two test tubes. The whole blood was used to determine the number of eosinophils by the Duncker method. Serum was used to determine the biochemical composition of the blood. Adrenaline and norepinephrine were determined as biochemical indices. These characteristics are specific markers identifying the impact of stress factors of various etiologies. • 2. The transport stress simulation test. Five animals from each group were used. The animals were placed in cages fixed on a laboratory shutter. The duration of the test was 240 minutes. At the end of the test the animals were examined by the techniques described in paragraph 1. A sample of whole blood was taken to determine the number of eosinophils by the Duncker method. The blood serum was studied to measure the amount of enzymes: alanine aminotransferase (ALT), aspartate aminotransferase (AST), creatinine
The tests were carried out on 2-month-old rats of the Wistar line. The groups were selected according to the principle of paired counterparts.
During the course of the study the animals were selected from the formed groups of 10 animals each to participate in stress tests, 5 animals per test. The selection was made on the 7th, 14th, 21st day of the drug administration (experiments were performed on the same days right after selection). The animals were weighed weekly immediately before testing. The obtained data were processed by statistical methods of mathematical statistics. […] Water for injection produced by the “Bufus Novosibkhimpharm” was used as a solvent. The introduced volume was 1.5 ml. The solution was introduced at the same tine 2 hours after morning feeding. The first group was given water for injection by the same way. The volume of administration was 1.5 ml.
The rotating universal Shaker Unimax 10 was used as a model for simulating transport stress. The rotation speed was chosen at 120 rpm for 240 min A cage with five animals was fixed on the site. The rats stayed in the cage in a free state. A change in the reaction of animals with prolonged administration of the drug was observed. The sampling and decapitation process is described in Example 1.
Physiological, morphological and biochemical blood parametres were determined as markers of the impact of stress on animals, such as: individual and group behavior of animals, the number of enuresis acts, the number of defecation acts, and the number of excrement boluses; eosinophils in whole blood according to Duncker and the levels of ALT, AST enzymes and creatinine in the blood serum were measured.
Transport stress is a striking example of technological effect on animal and human body. […] Thus, it suits best as an indicator for the observation of the classical example of the development of the adaptive syndrome by Selye. In the experiment, a simulation of the transport impact on the rats was performed with the help of the laboratory shutter. Progressive 4 hour-long circular vibrations adversely affected the animals. The rats in the control group were constantly moving, colliding with each other trying to concentrate in the corners, where the amplitude of the oscillation was the highest. At the same time the number of defecation acts was higher. The animals behaved aggressively. The stronger ones tried to push out a weaker animal out of the corner.

[3] = 30 mg/kg solution by gastric tube, administration day 7
[4] = 30 mg/kg solution by gastric tube, administration day 14
[5] = 30 mg/kg solution by gastric tube, administration day 21
[6] = 60 mg/kg in the form of pills with cocoa, administration day 7
[7] = 60 mg/kg in the form of pills with cocoa, administration day 14
[8] = 60 mg/kg in the form of pills with cocoa, administration day 21
[9] = 60 mg/kg solution by gastric tube, administration day 7
[10] = 60 mg/kg solution by gastric tube, administration day 14
[11] = 60 mg/kg solution by gastric tube, administration day 21
[12] = 120 mg/kg solution by gastric tube, administration day 7
[13] = 120 mg/kg solution by gastric tube, administration day 14
[14] = 120 mg/kg solution by gastric tube, administration day 21

## O=C1O[C@H]([C@@H](O)CO)C([O-])=C1O.[Li+] [lithium ascorbate]
White Wistar rats [1]
  Adrenaline level in blood serum: 22.6 ± 4.27 µg/L
White Wistar rats [2]; [3]
  ALT in blood serum: 29.8 ± 8.45
  AST in blood serum: 91.7 ± 7.29
  Creatinine in blood serum: 36.5 ± 3.84
  Eosinophil count in whole blood: 794 ± 6.9
  Number of boluses in defecation: 4.2 ± 0.4
White Wistar rats [2]; [4]
  ALT in blood serum: 32.1 ± 9.10
  AST in blood serum: 109.9 ± 9.67
  Creatinine in blood serum: 48.1 ± 3.82
  Eosinophil count in whole blood: 921 ± 9.1
  Number of boluses in defecation: 3.9 ± 0.4
White Wistar rats [2]; [5]
  ALT in blood serum: 31.7 ± 3.14
  AST in blood serum: 121.2 ± 7.21
  Creatinine in blood serum: 46.3 ± 3.26
  Eosinophil count in whole blood: 928 ± 10.7
  Number of boluses in defecation: 3.5 ± 0.3
White Wistar rats [2]; [6]
  ALT in blood serum: 22.7 ± 8.19
  AST in blood serum: 68.8 ± 4.72
  Creatinine in blood serum: 25.7 ± 4.30
  Eosinophil count in whole blood: 528 ± 5.8
  Number of boluses in defecation: 7.2 ± 1.5
White Wistar rats [2]; [7]
  ALT in blood serum: 34.8 ± 6.83
  AST in blood serum: 119.7 ± 6.21
  Creatinine in blood serum: 56.7 ± 6.44
  Eosinophil count in whole blood: 938 ± 11.7
  Number of boluses in defecation: 5.2 ± 0.9
White Wistar rats [2]; [8]
  ALT in blood serum: 35.0 ± 4.29
  AST in blood serum: 121. ± 4.29
  Creatinine in blood serum: 58.4 ± 9.30
  Eosinophil count in whole blood: 947 ± 12.4
  Number of boluses in defecation: 3.7 ± 0.3
White Wistar rats [2]; [9]
  ALT in blood serum: 31.0 ± 3.15
  AST in blood serum: 97.9 ± 5.04
  Creatinine in blood serum: 39.6 ± 7.98
  Eosinophil count in whole blood: 822 ± 8.7
  Number of boluses in defecation: 4.6 ± 0.4
White Wistar rats [2]; [10]
  ALT in blood serum: 33.1 ± 2.84
  AST in blood serum: 112.4 ± 6.23
  Creatinine in blood serum: 48.3 ± 8.27
  Eosinophil count in whole blood: 919 ± 4.1
  Number of boluses in defecation: 3.9 ± 0.4
White Wistar rats [2]; [11]
  ALT in blood serum: 32.4 ± 6.37
  AST in blood serum: 115.5 ± 8.97
  Creatinine in blood serum: 45.6 ± 2.73
  Eosinophil count in whole blood: 922 ± 9.3
  Number of boluses in defecation: 3.7 ± 0.7
White Wistar rats [2]; [12]
  ALT in blood serum: 32.4 ± 7.75
  AST in blood serum: 107.1 ± 6.20
  Creatinine in blood serum: 39.8 ± 6.13
  Eosinophil count in whole blood: 856 ± 4.2
  Number of boluses in defecation: 5.0 ± 1.1
White Wistar rats [2]; [13]
  ALT in blood serum: 31.7 ± 7.32
  AST in blood serum: 110.3 ± 7.41
  Creatinine in blood serum: 47.8 ± 1.46
  Eosinophil count in whole blood: 901 ± 16.8
  Number of boluses in defecation: 4.1 ± 1.1
White Wistar rats [2]; [14]
  ALT in blood serum: 30.1 ± 7.42
  AST in blood serum: 118.7 ± 4.48
  Creatinine in blood serum: 42.1 ± 2.97
  Eosinophil count in whole blood: 907 ± 4.3
  Number of boluses in defecation: 4.0 ± 1.0
